Test results published in patent publication US6358885B1, “Substituted phenylheterocyclic herbicides” (Mississippi State University, priority 1992, dated 2002).

Legend:
Assay in all cases: Test B preemergence/postemergence greenhouse plant response rating 0 to 10
Settings in all cases: 0 to 10 scale
barley = type: in vivo, Hordeum vulgare
Summary of the method: (§1)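 Both application timings were run together: seeds got compound preemergence, and established seedlings (two to eighteen cm) got it postemergence. Non-phytotoxic solvent carried the chemical. Ratings are visual, versus controls, at twelve to sixteen days.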

barnyardgrass = type: in vivo, Echinochloa crus-galli
Summary of the method: as §1

bedstraw = type: in vivo, Galium aparine
Summary of the method: as §1

blackgrass = type: in vivo, Alopecurus myosuroides
Summary of the method: as §1

cheatgrass = type: in vivo, Bromus secalinus
Summary of the method: as §1

chickweed = type: in vivo, Stellaria media
Summary of the method: as §1

cocklebur = type: in vivo, Xanthium pensylvanicum
Summary of the method: as §1

corn = type: in vivo, Zea mays
Summary of the method: as §1

cotton = type: in vivo, Gossypium hirsutum
Summary of the method: as §1

crabgrass = type: in vivo, Digitaria spp.
Summary of the method: as §1

giant foxtail = type: in vivo, Setaria faberii
Summary of the method: as §1

lambsquarters = type: in vivo, Chenopodium album
Summary of the method: as §1

morningglory = type: in vivo, Ipomoea hederacea
Summary of the method: as §1

rape = type: in vivo, Brassica napus
Summary of the method: as §1

rice = type: in vivo, Oryza sativa
Summary of the method: as §1

sorghum = type: in vivo, Sorghum bicolor
Summary of the method: as §1

soybean = type: in vivo, Glycine max
Summary of the method: as §1

sugar beet = type: in vivo, Beta vulgaris
Summary of the method: as §1

velvetleaf = type: in vivo, Abutilon theophrasti
Summary of the method: as §1

wheat = type: in vivo, Triticum aestivum
Summary of the method: as §1

wild buckwheat = type: in vivo, Polygonum convolvulus
Summary of the method: as §1

wild oat = type: in vivo, Avena fatua
Summary of the method: as §1

purple nutsedge = type: in vivo, Cyperus rotundus
Summary of the method: as §1

C=CCOC(=O)COc1cc(-c2nn3c(c2Cl)CCCC3)c(F)cc1Cl [Compound 62]
5: Plant response rating, Cocklebur (cocklebur; POSTEMERGENCE, Rate 10 g/ha) | Plant response rating, Corn (corn; POSTEMERGENCE, Rate 50 g/ha)
0: Plant response rating, Barley (barley; PREEMERGENCE, Rate 10 g/ha) | Plant response rating, Barley (barley; PREEMERGENCE, Rate 50 g/ha) | Plant response rating, Barnyardgrass (barnyardgrass; PREEMERGENCE, Rate 10 g/ha) | Plant response rating, Barnyardgrass (barnyardgrass; PREEMERGENCE, Rate 50 g/ha) | Plant response rating, Blackgrass (blackgrass; PREEMERGENCE, Rate 10 g/ha) | Plant response rating, Blackgrass (blackgrass; PREEMERGENCE, Rate 50 g/ha) | Plant response rating, Cheatgrass (cheatgrass; PREEMERGENCE, Rate 10 g/ha) | Plant response rating, Cheatgrass (cheatgrass; PREEMERGENCE, Rate 50 g/ha) | Plant response rating, Chickweed (chickweed; POSTEMERGENCE, Rate 10 g/ha) | Plant response rating, Chickweed (chickweed; PREEMERGENCE, Rate 50 g/ha) | Plant response rating, Cocklebur (cocklebur; PREEMERGENCE, Rate 10 g/ha) | Plant response rating, Cocklebur (cocklebur; PREEMERGENCE, Rate 50 g/ha) | Plant response rating, Corn (corn; PREEMERGENCE, Rate 50 g/ha) | Plant response rating, Cotton (cotton; PREEMERGENCE, Rate 10 g/ha) | Plant response rating, Cotton (cotton; PREEMERGENCE, Rate 50 g/ha) | Plant response rating, Crabgrass (crabgrass; PREEMERGENCE, Rate 10 g/ha) | Plant response rating, Crabgrass (crabgrass; PREEMERGENCE, Rate 50 g/ha) | Plant response rating, Giant foxtail (giant foxtail; PREEMERGENCE, Rate 10 g/ha) | Plant response rating, Giant foxtail (giant foxtail; PREEMERGENCE, Rate 50 g/ha) | Plant response rating, Morningglory (morningglory; PREEMERGENCE, Rate 50 g/ha) | Plant response rating, Rape (rape; PREEMERGENCE, Rate 50 g/ha) | Plant response rating, Rice (rice; PREEMERGENCE, Rate 50 g/ha) | Plant response rating, Sorghum (sorghum; PREEMERGENCE, Rate 50 g/ha) | Plant response rating, Soybean (soybean; PREEMERGENCE, Rate 50 g/ha) | Plant response rating, Wild buckwheat (wild buckwheat; PREEMERGENCE, Rate 50 g/ha) | Plant response rating, Wild oat (wild oat; PREEMERGENCE, Rate 50 g/ha) | Plant response rating, Nutsedge (purple nutsedge; POSTEMERGENCE, Rate 10 g/ha) | Plant response rating, Nutsedge (purple nutsedge; POSTEMERGENCE, Rate 50 g/ha) | Plant response rating, Nutsedge (purple nutsedge; PREEMERGENCE, Rate 50 g/ha)
2: Plant response rating, Barnyardgrass (barnyardgrass; POSTEMERGENCE, Rate 10 g/ha) | Plant response rating, Blackgrass (blackgrass; POSTEMERGENCE, Rate 50 g/ha) | Plant response rating, Cheatgrass (cheatgrass; POSTEMERGENCE, Rate 50 g/ha) | Plant response rating, Corn (corn; POSTEMERGENCE, Rate 10 g/ha) | Plant response rating, Crabgrass (crabgrass; POSTEMERGENCE, Rate 50 g/ha) | Plant response rating, Sorghum (sorghum; POSTEMERGENCE, Rate 10 g/ha) | Plant response rating, Sorghum (sorghum; POSTEMERGENCE, Rate 50 g/ha) | Plant response rating, Soybean (soybean; POSTEMERGENCE, Rate 10 g/ha) | Plant response rating, Velvetleaf (velvetleaf; PREEMERGENCE, Rate 50 g/ha) | Plant response rating, Wheat (wheat; POSTEMERGENCE, Rate 10 g/ha) | Plant response rating, Wheat (wheat; POSTEMERGENCE, Rate 50 g/ha) | Plant response rating, Wheat (wheat; PREEMERGENCE, Rate 50 g/ha) | Plant response rating, Wild buckwheat (wild buckwheat; POSTEMERGENCE, Rate 10 g/ha) | Plant response rating, Wild oat (wild oat; POSTEMERGENCE, Rate 50 g/ha)
1: Plant response rating, Barley (barley; POSTEMERGENCE, Rate 10 g/ha) | Plant response rating, Barley (barley; POSTEMERGENCE, Rate 50 g/ha) | Plant response rating, Blackgrass (blackgrass; POSTEMERGENCE, Rate 10 g/ha) | Plant response rating, Cheatgrass (cheatgrass; POSTEMERGENCE, Rate 10 g/ha) | Plant response rating, Crabgrass (crabgrass; POSTEMERGENCE, Rate 10 g/ha) | Plant response rating, Giant foxtail (giant foxtail; POSTEMERGENCE, Rate 10 g/ha) | Plant response rating, Rape (rape; POSTEMERGENCE, Rate 10 g/ha) | Plant response rating, Wild oat (wild oat; POSTEMERGENCE, Rate 10 g/ha)
9: Plant response rating, Bedstraw (bedstraw; POSTEMERGENCE, Rate 50 g/ha) | Plant response rating, Cocklebur (cocklebur; POSTEMERGENCE, Rate 50 g/ha) | Plant response rating, Lambsquarter (lambsquarters; POSTEMERGENCE, Rate 50 g/ha) | Plant response rating, Lambsquarter (lambsquarters; PREEMERGENCE, Rate 50 g/ha) | Plant response rating, Morningglory (morningglory; POSTEMERGENCE, Rate 50 g/ha)
6: Plant response rating, Morningglory (morningglory; POSTEMERGENCE, Rate 10 g/ha) | Plant response rating, Rape (rape; POSTEMERGENCE, Rate 50 g/ha)
10: Plant response rating, Cotton (cotton; POSTEMERGENCE, Rate 10 g/ha) | Plant response rating, Cotton (cotton; POSTEMERGENCE, Rate 50 g/ha) | Plant response rating, Sugar beet (sugar beet; POSTEMERGENCE, Rate 10 g/ha) | Plant response rating, Sugar beet (sugar beet; POSTEMERGENCE, Rate 50 g/ha) | Plant response rating, Sugar beet (sugar beet; PREEMERGENCE, Rate 50 g/ha) | Plant response rating, Velvetleaf (velvetleaf; POSTEMERGENCE, Rate 50 g/ha) | Plant response rating, Wild buckwheat (wild buckwheat; POSTEMERGENCE, Rate 50 g/ha)
7: Plant response rating, Bedstraw (bedstraw; PREEMERGENCE, Rate 10 g/ha) | Plant response rating, Bedstraw (bedstraw; PREEMERGENCE, Rate 50 g/ha) | Plant response rating, Velvetleaf (velvetleaf; POSTEMERGENCE, Rate 10 g/ha)
8: Plant response rating, Bedstraw (bedstraw; POSTEMERGENCE, Rate 10 g/ha) | Plant response rating, Lambsquarter (lambsquarters; POSTEMERGENCE, Rate 10 g/ha) | Plant response rating, Soybean (soybean; POSTEMERGENCE, Rate 50 g/ha)
3: Plant response rating, Barnyardgrass (barnyardgrass; POSTEMERGENCE, Rate 50 g/ha) | Plant response rating, Chickweed (chickweed; POSTEMERGENCE, Rate 50 g/ha) | Plant response rating, Giant foxtail (giant foxtail; POSTEMERGENCE, Rate 50 g/ha) | Plant response rating, Rice (rice; POSTEMERGENCE, Rate 10 g/ha) | Plant response rating, Rice (rice; POSTEMERGENCE, Rate 50 g/ha)
